# Literature values as cited in patent publication US8278066B2, “Truncated somatostatin receptors” (Board of Regents, The University of Texas System, priority 2001, dated 2012).
# Target: SSTR2 (Homo sapiens, UniProt P30874)
# Details: reported by Reisine et al. 1993; Raynor et al. 1993; cited from earlier work
# Chain of SSTR2 (P30874 whole entry, species assumed): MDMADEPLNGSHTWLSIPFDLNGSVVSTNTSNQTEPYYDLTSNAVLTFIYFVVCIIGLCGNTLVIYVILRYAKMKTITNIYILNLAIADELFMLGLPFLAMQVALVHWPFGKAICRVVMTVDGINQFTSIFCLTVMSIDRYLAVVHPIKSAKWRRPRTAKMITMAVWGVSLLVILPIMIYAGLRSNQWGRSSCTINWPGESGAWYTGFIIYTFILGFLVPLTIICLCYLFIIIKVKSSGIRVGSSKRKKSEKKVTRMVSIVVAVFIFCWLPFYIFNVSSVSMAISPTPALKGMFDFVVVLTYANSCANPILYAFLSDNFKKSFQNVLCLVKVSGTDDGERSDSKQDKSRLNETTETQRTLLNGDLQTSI
structure (smiles),measurement,value
C[C@@H](O)[C@@H]1NC(=O)[C@H](CCCCN)NC(=O)[C@@H](Cc2c[nH]c3ccccc23)NC(=O)[C@H](Cc2ccccc2)NC(=O)[C@@H](NC(=O)[C@H](N)Cc2ccccc2)CSSC[C@@H](C(=O)N[C@H](CO)[C@@H](C)O)NC1=O [octreotide],Receptor saturation,100 nM
